Experimental data taken from BigSolDB 2.1.

COC(=O)CC[C@H](N)C(=O)O
solubility (mole fraction)
Conditions | 283.15 K | 288.15 K | 293.15 K | 298.15 K | 303.15 K | 308.15 K | 313.15 K | 318.15 K | 323.15 K
in acetone | 5.18e-05 | 9.7e-05 | 0.000148 | 0.000221 | 0.000292 | 0.000377 | 0.000438 | 0.000516 | 0.000572
in ethanol | 0.000116 | 0.000147 | 0.000177 | 0.000212 | 0.000245 | 0.000272 | 0.000307 | 0.000348 | 0.000383
in isopropanol | 8.34e-05 | 0.000104 | 0.000124 | 0.000144 | 0.000166 | 0.000196 | 0.000217 | 0.000245 | 0.000272
in methanol | 0.00115 | 0.00122 | 0.0013 | 0.00138 | 0.00145 | 0.00152 | 0.00161 | 0.0017 | 0.00179
in n-propanol | 1.38e-05 | 4.22e-05 | 7.7e-05 | 0.000116 | 0.000154 | 0.000208 | 0.000246 | 0.000289 | 0.000336
in water | 0.0337 | 0.036 | 0.0394 | 0.0426 | 0.0457 | 0.0489 | 0.0523 | 0.0565 | 0.0608
